According to patent US20110144127A1, “AGENTS FOR TREATMENT OF GLAUCOMATOUS RETINOPATHY AND OPTIC NEUROPATHY” (ALCON INC., priority 2003, published 2011):

Columns and labels:
[1] = tested on: cultured adult rat retinal ganglion cells; assay: Glutamate-induced toxicity in cultured adult rat retinal ganglion cells (survival by counting Thy-1-positive healthy cells); format: cell-based
Experimental: Cells were treated with the indicated compounds for 3 days. Survival was assayed by counting Thy-1-positive healthy cells. The asterisk * represents a significant difference from the control values by one-way ANOVA analysis of variance between groups, then Dunnett's test.
Adult Sprague-Dawley rats were euthanized by CO2 asphyxiation. Their eyes were enucleated and placed in NEUROBASAL™ medium (Gibco, Gaithersburg, Md.). The retina from each eye was detached and isolated. Retinal cells were dissociated by combining up to 20 retinae with 5 mL of papain solution containing 10 mg papain, 2 mg DL-cysteine, and 2 mg bovine serum albumin in 5 ml of NEUROBASAL™ medium, for 25 min at 37° C., then washed 3 times with 5 mL RGC medium (NEUROBASAL™) medium supplemented as cited in Example 2 and with 1% fetal calf serum. Retinal pieces were triturated by passing through a fire-polished disposable pipet several times until cells were dispersed. The cell suspension was placed onto a poly-D-lysine- and laminin-coated 8-well chambered culture slide. […] The cells were then cultured at 95% air/5% CO2 at 37° C. for three days.
At the end of the incubation period, the cells were fixed and labeled for Thy-1, a RGC marker, by immunocytochemistry. Cell survival was quantified by manually counting Thy-1-positive healthy cells in each well.

[2] = tested on: quinone reductase, glutathione-S-transferase, and glutathione reductase; details: various cell lines including human adult retinal pigment epithelial cells; cited from earlier work

Compound	reduction of the surviving cells ([1]; glutamate 100 μM for 3 days, adult rat RGC)	protection from glutamate-induced toxicity (survival of Thy-1-positive healthy cells) ([1]; sulforaphane 0.5 μM with glutamate 100 μM, 3 days, adult Sprague-Dawley rat RGC)	induction of detoxification enzymes [2]
N[C@@H](CCC(=O)O)C(=O)O [glutamate]	40-60%		
C[S+]([O-])CCCCN=C=S (stereo not drawn) [sulforaphane]		prevented such toxicity	known to induce quinone reductase, glutathione-S-transferase, and glutathione reductase
